Results: ChEMBL document CHEMBL1201862, “PubChem BioAssay data set” (2004)
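Method: 48-hour compound exposure of cells in 96-well plates, five concentrations, linear interpolation of endpoints. GI50 = concentration required for 50% inhibition of growth.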 Activity calls are given as the source filed them. Cut-off read from the data, not from the text of the source: active = GI50 up to about 1.1 µM and inactive = higher.

Key:
Experiment in all cases: NCI tumour cell line growth inhibition, 48 h
[1] = system: LOX IMVI
[2] = system: A549
[3] = system: UO-31
[4] = system: SW-620
[5] = system: HT-29
[6] = system: SF-539
[7] = system: HOP-62
[8] = system: KM12
[9] = system: NCI-H226
[10] = system: SF-268
[11] = system: MCF7
[12] = system: SK-MEL-5
[13] = system: CCRF-CEM
[14] = system: PC-3
[15] = system: U-251
[16] = system: UACC-62
[17] = system: SNB-19
[18] = system: M14
[19] = system: K562
[20] = system: HCC 2998

Row | SMILES | GI50 [1] | GI50 [2] | GI50 [3] | GI50 [4] | GI50 [5] | GI50 [6] | GI50 [7] | GI50 [8] | GI50 [9] | GI50 [10] | GI50 [11] | GI50 [12] | GI50 [13] | GI50 [14] | GI50 [15] | GI50 [16] | GI50 [17] | GI50 [18] | GI50 [19] | GI50 [20]
1 | OC1OC(c2ccc[nH]2)C(F)(F)C(F)(F)C1(F)F (centres undefined) | > 100 µM (inactive) | > 100 µM (inactive) | 97.7 µM (inactive) | > 100 µM (inactive) | > 100 µM (inactive) | > 100 µM (inactive) | > 100 µM (inactive) | > 100 µM (inactive) | > 100 µM (inactive) | > 100 µM (inactive) | > 100 µM (inactive) | 63.4 µM (inactive) | 73.6 µM (inactive) | > 100 µM (inactive) | > 100 µM (inactive) | > 100 µM (inactive) | > 100 µM (inactive) | > 100 µM (inactive) |  | 
2 | O=C(Nc1cccc(C(F)(F)F)c1)O/N=C(/Cl)CCl | 19 µM (inactive) | > 100 µM (inactive) | > 100 µM (inactive) | 38.5 µM (inactive) | 51.9 µM (inactive) | > 100 µM (inactive) | > 100 µM (inactive) | > 100 µM (inactive) |  | > 100 µM (inactive) | 21.6 µM (inactive) | 40.7 µM (inactive) | 30.2 µM (inactive) | 96.6 µM (inactive) | 39.5 µM (inactive) |  | > 100 µM (inactive) | > 100 µM (inactive) | 29.6 µM (inactive) | > 100 µM (inactive)
3 | N#CCc1nc(C#N)c(N)o1 |  | > 100 µM (inactive) | > 100 µM (inactive) | > 100 µM (inactive) | > 100 µM (inactive) | > 100 µM (inactive) | > 100 µM (inactive) | > 100 µM (inactive) | > 100 µM (inactive) | > 100 µM (inactive) | > 100 µM (inactive) |  | > 100 µM (inactive) | > 100 µM (inactive) | > 100 µM (inactive) | > 100 µM (inactive) |  | > 100 µM (inactive) |  | > 100 µM (inactive)
4 | COc1ccc(-c2c3c(n(C4OC(COC(C)=O)C(OC(C)=O)C(OC(C)=O)C4OC(C)=O)c(=S)c2C#N)CCC3)cc1 (centres undefined) | > 100 µM (inactive) | > 100 µM (inactive) | 81.3 µM (inactive) | > 100 µM (inactive) | > 100 µM (inactive) | > 100 µM (inactive) | > 100 µM (inactive) | > 100 µM (inactive) |  | > 100 µM (inactive) | > 100 µM (inactive) | 38.8 µM (inactive) | > 100 µM (inactive) | > 100 µM (inactive) | > 100 µM (inactive) | > 100 µM (inactive) | > 100 µM (inactive) | > 100 µM (inactive) | > 100 µM (inactive) | > 100 µM (inactive)
5 | CCN(CC)CCNc1ccc([N+](=O)[O-])c2nc3ccc(OC)cc3c(N)c12 | 0.172 µM (active) | 1.27 µM (inactive) | 1.67 µM (inactive) | 0.191 µM (active) | 0.394 µM (active) | 1.68 µM (inactive) | 1.7 µM (inactive) | 1.12 µM (inactive) | 2.32 µM (inactive) | 1.65 µM (inactive) | 0.43 µM (active) | 0.811 µM (active) | 0.248 µM (active) | 1.36 µM (inactive) | 1.62 µM (inactive) | 1.7 µM (inactive) | 1.67 µM (inactive) | 1.37 µM (inactive) | 0.238 µM (active) | 
6 | COc1ccc(S(=O)(=O)N2C(=O)CCC2C(=O)NC(N)=O)cc1 (centres undefined) | > 100 µM (inactive) | > 100 µM (inactive) | > 100 µM (inactive) | > 100 µM (inactive) | > 100 µM (inactive) | > 100 µM (inactive) | > 100 µM (inactive) | > 100 µM (inactive) | > 100 µM (inactive) |  | > 100 µM (inactive) | > 100 µM (inactive) | > 100 µM (inactive) | > 100 µM (inactive) | > 100 µM (inactive) | > 100 µM (inactive) | > 100 µM (inactive) | > 100 µM (inactive) | > 100 µM (inactive) | 
7 | CC1=Nc2c(C#N)ncn2N=C(C)C1 | > 100 µM (inactive) | > 100 µM (inactive) | > 100 µM (inactive) | > 100 µM (inactive) | > 100 µM (inactive) | > 100 µM (inactive) | > 100 µM (inactive) | > 100 µM (inactive) | > 100 µM (inactive) | > 100 µM (inactive) | > 100 µM (inactive) | > 100 µM (inactive) | 70.5 µM (inactive) | > 100 µM (inactive) | > 100 µM (inactive) | > 100 µM (inactive) |  | > 100 µM (inactive) | > 100 µM (inactive) | 
8 | CN(C)CCNS(=O)(=O)N(C)C | > 100 µM (inactive) | > 100 µM (inactive) |  | > 100 µM (inactive) | > 100 µM (inactive) | > 100 µM (inactive) | > 100 µM (inactive) | > 100 µM (inactive) | > 100 µM (inactive) | > 100 µM (inactive) | > 100 µM (inactive) | > 100 µM (inactive) | > 100 µM (inactive) | > 100 µM (inactive) | > 100 µM (inactive) | > 100 µM (inactive) | > 100 µM (inactive) | > 100 µM (inactive) | > 100 µM (inactive) | 
9 | O=c1[nH]c(=S)c2cc3c(=S)[nH]c(=O)n(CCC(c4ccccc4)(c4ccccc4)c4ccccc4)c3nc2n1CCC(c1ccccc1)(c1ccccc1)c1ccccc1 |  | > 100 µM (inactive) | > 100 µM (inactive) |  |  |  | > 100 µM (inactive) | > 100 µM (inactive) | > 100 µM (inactive) | > 100 µM (inactive) | > 100 µM (inactive) | > 100 µM (inactive) | 13.6 µM (inactive) | > 100 µM (inactive) | > 100 µM (inactive) | > 100 µM (inactive) | > 100 µM (inactive) | > 100 µM (inactive) | 24.8 µM (inactive) | > 100 µM (inactive)
10 | Cc1cn(C2CC(SCCO)C(CO)O2)c(=O)[nH]c1=O (centres undefined) |  | > 100 µM (inactive) | > 100 µM (inactive) | > 100 µM (inactive) | > 100 µM (inactive) | > 100 µM (inactive) | > 100 µM (inactive) | > 100 µM (inactive) | > 100 µM (inactive) | > 100 µM (inactive) | > 100 µM (inactive) |  | > 100 µM (inactive) | > 100 µM (inactive) | > 100 µM (inactive) | > 100 µM (inactive) | > 100 µM (inactive) | > 100 µM (inactive) | > 100 µM (inactive) | > 100 µM (inactive)
11 | CN(C)c1ccc(/C=C2\N=C(NNc3ccccc3)NC2=O)cc1 | 27.8 µM (inactive) | 20.4 µM (inactive) | 31 µM (inactive) | 26.8 µM (inactive) | 16.9 µM (inactive) | 19.5 µM (inactive) | 30.3 µM (inactive) | 13.2 µM (inactive) |  | 27.3 µM (inactive) | 17.9 µM (inactive) |  | < 0.01 µM (active) | 13.2 µM (inactive) | 14.3 µM (inactive) | 28.8 µM (inactive) | 35.6 µM (inactive) | 37.3 µM (inactive) |  | 14 µM (inactive)
12 | COc1ccc(/C=C2/NC(=S)N=C2Cl)cc1 | > 100 µM (inactive) | 85.1 µM (inactive) | > 100 µM (inactive) | > 100 µM (inactive) | > 100 µM (inactive) | > 100 µM (inactive) | > 100 µM (inactive) | 58.3 µM (inactive) | > 100 µM (inactive) | > 100 µM (inactive) | > 100 µM (inactive) | > 100 µM (inactive) | > 100 µM (inactive) | > 100 µM (inactive) | > 100 µM (inactive) |  | > 100 µM (inactive) | > 100 µM (inactive) | > 100 µM (inactive) | 
13 | NC(CSc1nc2ccccn2c1[N+](=O)[O-])C(=O)O (centres undefined) |  | > 100 µM (inactive) | 2.49 µM (inactive) | > 100 µM (inactive) | > 100 µM (inactive) | > 100 µM (inactive) | > 100 µM (inactive) | > 100 µM (inactive) | > 100 µM (inactive) | > 100 µM (inactive) | > 100 µM (inactive) | > 100 µM (inactive) |  | > 100 µM (inactive) | > 100 µM (inactive) | > 100 µM (inactive) | > 100 µM (inactive) | > 100 µM (inactive) | > 100 µM (inactive) | > 100 µM (inactive)
14 | C1CNOCCCONCCCNOCCCONC1 | > 100 µM (inactive) | 91.8 µM (inactive) | > 100 µM (inactive) | > 100 µM (inactive) | > 100 µM (inactive) |  | 50.1 µM (inactive) | > 100 µM (inactive) | > 100 µM (inactive) | 85.9 µM (inactive) | 37.5 µM (inactive) | > 100 µM (inactive) | > 100 µM (inactive) | 27.6 µM (inactive) | 31.7 µM (inactive) | > 100 µM (inactive) | 57.3 µM (inactive) | 72.1 µM (inactive) | > 100 µM (inactive) | 
15 | O=C1CNc2cc(N3CCN(c4ccccc4)CC3)ccc2N1 | > 100 µM (inactive) | > 100 µM (inactive) | > 100 µM (inactive) | > 100 µM (inactive) | > 100 µM (inactive) |  | > 100 µM (inactive) | > 100 µM (inactive) | > 100 µM (inactive) | > 100 µM (inactive) |  | > 100 µM (inactive) | > 100 µM (inactive) | > 100 µM (inactive) | > 100 µM (inactive) | > 100 µM (inactive) | > 100 µM (inactive) | > 100 µM (inactive) | > 100 µM (inactive) | > 100 µM (inactive)
16 | CCc1cc2c(oc3c4ccccc4ccc23)c(=O)[nH]1 | > 10 µM (inactive) | > 10 µM (inactive) | > 10 µM (inactive) | > 10 µM (inactive) | > 10 µM (inactive) | > 10 µM (inactive) |  | > 10 µM (inactive) | > 10 µM (inactive) | > 10 µM (inactive) | > 10 µM (inactive) |  | > 10 µM (inactive) | > 10 µM (inactive) | > 10 µM (inactive) | > 10 µM (inactive) | > 10 µM (inactive) | > 10 µM (inactive) | > 10 µM (inactive) | 
